For orientation: solubility means the dissolved amount per volume that the medium holds.

One series in a line: Water solubility. It is filed as physicochemical.
A short description of series [1]: Solid state stability at 40° C./75% RH (HPLC and polymorphic form). It counts as physicochemical. As for the experimental part:
The solid state stabilities as shown in Tables 5 and 7 were measured using the following procedure. A preliminary HPLC method was developed to investigate the stability of the salt forms of compound 1. The HPLC conditions are listed below.

The test system of another series is tumor angiogenesis. The note with it: in vivo; cited from earlier work.
Series [2] concerns VEGF-stimulated receptor autophosphorylation. The note with it: cited from earlier work.
Series [3] deals with endothelial cell survival. The conditions noted are these: cited from earlier work.
For the next series, the system named is human xenograft tumors. The note with it: in vivo; cited from earlier work.

Read-outs that look alike come from different tables or passages of the source.

With `CNC(=O)c1c(C)oc2cc(Oc3ccnc4cc(OCCN5CCOCC5)ccc34)ccc12` [Bis-HBr Form I, N,2-dimethyl-6-[7-(2-morpholinoethoxy)quinolin-4-yloxy]benzofuran-3-carboxamide], the solubility in the series “Water solubility” (pH 3.4, read-out: Solubility) is more than 30 mg/mL. Moreover, in series [1] (bis-HBr salt), the “Solid state stability, polymorphic form found, T (1 week) close” value was “Form 1”; the “Solid state stability, polymorphic form found, T (1 week) open” value is on record as “Form I & II”; the “Solid state stability, polymorphic form found, T (4 week) close” value is reported as “Form I & II”; the “Solid state stability, polymorphic form found, T (4 week) open” value is reported as “Form II”. Besides, in series [1] (bis-HBr salt), the “Solid state stability, polymorphic form found, T (6 week) close” value is reported as “Form II”; the “Solid state stability, polymorphic form found, T (6 week) open” value is on record as “Form II”; the “Solid state stability, polymorphic form found, T (0)” value is reported as “Form 1”.

Take `CNC(=O)c1c(C)oc2cc(Oc3ccnc4cc(OCCN5CCOCC5)ccc34)ccc12` [Bis-maleate Form I, N,2-dimethyl-6-[7-(2-morpholinoethoxy)quinolin-4-yloxy]benzofuran-3-carboxamide]: the solubility in “Water solubility” (pH 3.6, read-out: Solubility) is not below 150 mg/mL. In series [1] (bis-maleate salt), the “Solid state stability (HPLC %) T (1 week) close” value amounted to 99.9%; the “Solid state stability, polymorphic form found, T (1 week) close” value is given as “Form I”; the “Solid state stability (HPLC %) T (1 week) open” value was found to be 99.9%; the “Solid state stability, polymorphic form found, T (1 week) open” value is recorded as “Form I”. Also, in series [1] (bis-maleate salt), the “Solid state stability (HPLC %) T (4 week) close” value was 99.9%; the “Solid state stability, polymorphic form found, T (4 week) close” value is on record as “Form I”; the “Solid state stability (HPLC %) T (4 week) open” value is 99.9%; the “Solid state stability, polymorphic form found, T (4 week) open” value was “Form I”. In addition, in series [1] (bis-maleate salt), the “Solid state stability (HPLC %) T (6 week) close” value amounted to 99.9%; the “Solid state stability, polymorphic form found, T (6 week) close” value was “Form I”; the “Solid state stability (HPLC %) T (6 week) open” value came to 99.8%; the “Solid state stability, polymorphic form found, T (6 week) open” value is “Form I”. Besides, in series [1] (bis-maleate salt), the “Solid state stability (HPLC %) T (0)” value came out at 99.9% and the “Solid state stability, polymorphic form found, T (0)” value is listed as “Form I”.

For `CNC(=O)c1c(C)oc2cc(Oc3ccnc4cc(OCCN5CCOCC5)ccc34)ccc12` [compound 1, N,2-dimethyl-6-[7-(2-morpholinoethoxy)quinolin-4-yloxy]benzofuran-3-carboxamide], in the series on tumor angiogenesis, the “inhibition of tumor angiogenesis” value is on record as “significant inhibition”. Besides, the “blocking of VEGF-stimulated receptor autophosphorylation” value in series [2] is “selectively blocks”. Moreover, in series [3], the “blocking of endothelial cell survival” value is recorded as “selectively blocks”. Besides, the “inhibition of the growth of human xenograft tumors” value in the series on human xenograft tumors is recorded as “significant inhibition”.

On to `CNC(=O)c1c(C)oc2cc(Oc3ccnc4cc(OCCN5CCOCC5)ccc34)ccc12` [Bis-HBr Form II, N,2-dimethyl-6-[7-(2-morpholinoethoxy)quinolin-4-yloxy]benzofuran-3-carboxamide], for which, in the series “Water solubility” (pH 3.4), the solubility was >30 mg/ml (pH 3.4). Besides, in series [1] (bis-HBr salt), the “Solid state stability (HPLC %) T (1 week) close” value came to 98.70%; the “Solid state stability, polymorphic form found, T (1 week) close” value is “Form II”; the “Solid state stability (HPLC %) T (1 week) open” value was determined as 98.61%; the “Solid state stability, polymorphic form found, T (1 week) open” value is “Form II”. In series [1] (bis-HBr salt), the “Solid state stability (HPLC %) T (4 week) close” value is 98.66%; the “Solid state stability, polymorphic form found, T (4 week) close” value is “Form II”; the “Solid state stability (HPLC %) T (4 week) open” value stood at 98.62%; the “Solid state stability, polymorphic form found, T (4 week) open” value is “Form II”. In addition, in series [1] (bis-HBr salt), the “Solid state stability (HPLC %) T (6 week) close” value is given as 98.61%; the “Solid state stability, polymorphic form found, T (6 week) close” value is “Form II”; the “Solid state stability (HPLC %) T (6 week) open” value is 98.49%; the “Solid state stability, polymorphic form found, T (6 week) open” value was “Form II”. Also, in series [1] (bis-HBr salt), the “Solid state stability (HPLC %) T (0)” value worked out at 98.53% and the “Solid state stability, polymorphic form found, T (0)” value is on record as “Form II”.

In the case of `CNC(=O)c1c(C)oc2cc(Oc3ccnc4cc(OCCN5CCOCC5)ccc34)ccc12` [Bis-maleate Form III, N,2-dimethyl-6-[7-(2-morpholinoethoxy)quinolin-4-yloxy]benzofuran-3-carboxamide], the solubility in the series “Water solubility” (pH 3.8, read-out: Solubility) is not below 30 mg/mL. Further, in series [1] (bis-maleate salt), the “Solid state stability, polymorphic form found, T (1 week) close” value was “Form III”; the “Solid state stability, polymorphic form found, T (4 week) close” value is “Form III”; the “Solid state stability (HPLC %) T (6 week) close” value was 99.9%; the “Solid state stability, polymorphic form found, T (6 week) close” value is “Form III”. In addition, in series [1] (bis-maleate salt), the “Solid state stability (HPLC %) T (0)” value amounted to 99.9% and the “Solid state stability, polymorphic form found, T (0)” value was “Form III”.
